Data published in the supplement of paper PMC12317010.

Experiment: collision cross section in nitrogen (drift tube, single-field); higher = larger gas-phase ion size
[1] = ion type: [M-H], ion source: ESI, ion mode: Negative
[2] = ion type: [M+H], ion source: APCI, ion mode: Positive
[3] = ion type: [M+H], ion source: ESI, ion mode: Positive
[4] = ion type: [M+Na], ion source: ESI, ion mode: Positive
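Note: chemical standards at 10 µM analysed by drift tube IMS-QTOF MS in about 3.95 torr nitrogen, mean of duplicate injections differing ≤1%, mass error below 10 ppm.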

SMILES	collision cross section in nitrogen [1]	collision cross section in nitrogen [4]	collision cross section in nitrogen [2]	collision cross section in nitrogen [3]
CCCCCCCCCCCCc1ccccc1O [n-Dodecylphenol]	173.8 Å²			
Cc1cc(N=Nc2ccccc2C)ccc1N [o-Aminoazotoluene]	157.3 Å²		155.9 Å²	156 Å²
Cc1ccccc1O [o-Cresol]	120.4 Å²			
COc1ccc(N)cc1 [p-Anisidinium chloride]				133.2 Å²

Continued, in another order:

collision cross section in nitrogen [1]	collision cross section in nitrogen [4]	SMILES	collision cross section in nitrogen [2]	collision cross section in nitrogen [3]
198 Å²	200.6 Å²	Cc1cc(C2(c3cc(C)c(O)cc3C)OS(=O)(=O)c3ccccc32)c(C)cc1O [p-Xylenol blue]	194.4 Å²	194.5 Å²
148.4 Å²		CCC(C)OC(=O)c1ccc(O)cc1 (centres undefined) [sec-Butylparaben]		
148.2 Å²		CC(C)(C)OC(=O)c1ccc(O)cc1 [tert-Butyl 4-hydroxybenzoate]		
151.6 Å²		CC(C)(C)OC(=O)c1ccccc1C(=O)O [tert-Butyl hydrogen phthalate]		
	199 Å²	CCCCCCCC/C=C/CCCCCCCC(=O)OCC(O)CO (stereo not drawn) [trans-Monoelaidin]		
